Values of other authors in PubChem BioAssay AID1259409 (Chemical Carcinogenesis Research Information System (CCRIS), 2018).

System: rodent chemically induced tumor inhibition, incidence and multiplicity
Assay: CCRIS tumor inhibitor studies
Conditions: Promoter: NONE USED

Compound: COc1ccc2c(c1)c(CC(=O)O)c(C)n2C(=O)c1ccc(Cl)cc1
- tumour outcome (control, treated, inhibition, significance) (Carcinogen: N-ETHYL-N-NITROSOUREA, 759-73-9, Dose [Inhibitor]: 0, 20 MG/L IN DRINKING WATER FOR 12 MO ADMINISTERED TO OFFSPRING OF CARCINOGEN-TREATED MOTHERS (STUDY DURATION: 12 MO), Route [Inhibitor]: ORAL, Species: RAT, Strain/Sex: ALBINO/MALE, FEMALE, Target Tissue: Type of Lesion: PERIPHERAL NERVES: TUMOR, Dose [Carcinogen]: 75 MG/KG BW ADMINISTERED INTRAPERITONEALLY TO MOTHERS 21 D POST CONCEPTION): 13/42 (31%), 3/25 (12%), 61%, not significant
- tumour outcome (control, treated, inhibition, significance) (Carcinogen: N-ETHYL-N-NITROSOUREA, 759-73-9, Dose [Inhibitor]: 0, 20 MG/L IN DRINKING WATER FOR 12 MO ADMINISTERED TO OFFSPRING OF CARCINOGEN-TREATED MOTHERS (STUDY DURATION: 12 MO), Route [Inhibitor]: ORAL, Species: RAT, Strain/Sex: ALBINO/MALE, FEMALE, Target Tissue: Type of Lesion: SPINAL CHORD: TUMOR, Dose [Carcinogen]: 75 MG/KG BW ADMINISTERED INTRAPERITONEALLY TO MOTHERS 21 D POST CONCEPTION): 11/42 (26%), 4/25 (16%), 38%, not significant
- tumour outcome (control, treated, inhibition, significance) (Carcinogen: N-METHYL-N-NITROSOUREA, 684-93-5, Dose [Inhibitor]: 2.5 MG/KG BW FOR 10 WK STARTING 21 WK POST CARCINOGEN TREATMENT (STUDY DURATION: 35 WK), Route [Inhibitor]: INTRAPERITONEAL, Species: RAT, Strain/Sex: CD/F344/FEMALE, Target Tissue: Type of Lesion: COLON: ADENOCARCINOMA, Dose [Carcinogen]: 2 MG 3/WK FOR 5 WK): 6/9 (67%), 6/9 (67%), 0%, not significant
- tumour outcome (control, treated, inhibition, significance) (Carcinogen: N-METHYL-N-NITROSOUREA, 684-93-5, Dose [Inhibitor]: 2.5 MG/KG BW FOR 15 WK STARTING 5 WK POST CARCINOGEN TREATMENT (STUDY DURATION: 26 WK), Route [Inhibitor]: INTRAPERITONEAL, Species: RAT, Strain/Sex: CD/F344/FEMALE, Target Tissue: Type of Lesion: COLON: ADENOCARCINOMA, Dose [Carcinogen]: 2 MG 3/WK FOR 5 WK): 20/30 (67%), 9/29 (31%), 54%, p<0.02
- tumour outcome (control, treated, inhibition, significance) (Carcinogen: N-METHYL-N-NITROSOUREA, 684-93-5, Dose [Inhibitor]: 2.5 MG/KG BW FOR 15 WK STARTING 5 WK POST CARCINOGEN TREATMENT FOLLOWED BY 10 WK CESSATION OF TREATMENT (STUDY DURATION:, Route [Inhibitor]: INTRAPERITONEAL, Species: RAT, Strain/Sex: CD/F344/FEMALE, Target Tissue: Type of Lesion: COLON: ADENOCARCINOMA, Dose [Carcinogen]: 2 MG 3/WK FOR 5 WK): 6/9 (67%), 7/9 (78%), -16%, not significant
- tumour outcome (control, treated, inhibition, significance) (Carcinogen: N-METHYL-N-NITROSOUREA, 684-93-5, Dose [Inhibitor]: 10 UG/ML TAP WATER FOR 15 WK STARTING 10 WK AFTER THE START OF CARCINOGEN TREATMENT AND CONTINUING THROUGH END OF STUDY, Route [Inhibitor]: ORAL, Species: RAT, Strain/Sex: CD-FISCHER/FEMALE, Target Tissue: Type of Lesion: LARGE INTESTINE: ADENOCARCINOMA, Dose [Carcinogen]: 2 MG 3/WK FOR 5 WK): 18/27 (67%), 4/28 (14%), 79%, p<0.01
- tumour outcome (control, treated, inhibition, significance) (Carcinogen: N-METHYL-N-NITROSOUREA, 684-93-5, Dose [Inhibitor]: 20 UG/ML TAP WATER FOR 15 WK STARTING 10 WK AFTER THE START OF CARCINOGEN TREATMENT AND CONTINUING THROUGH END OF STUDY, Route [Inhibitor]: ORAL, Species: RAT, Strain/Sex: CD-FISCHER/FEMALE, Target Tissue: Type of Lesion: LARGE INTESTINE: ADENOCARCINOMA, Dose [Carcinogen]: 2 MG 3/WK FOR 5 WK): 18/27 (67%), 4/24 (17%), 75%, p<0.01
- tumour outcome (control, treated, inhibition, significance) (Carcinogen: N-NITROSOMETHYLUREA, 684-93-5, Dose [Inhibitor]: 0, 0.001% IN DRINKING WATER FOR STUDY DAYS 1 TO 8 (STUDY DURATION: 31 WK), Route [Inhibitor]: ORAL, Species: RAT, Strain/Sex: SPRAGUE-DAWLEY/MALE, Target Tissue: Type of Lesion: LARGE BOWEL: ADENOCARCINOMA, Dose [Carcinogen]: 4 MG ON D 3, 5 AND 7 OF STUDY): 26/29 (90%), 20/30 (67%), 26%, not significant
- tumour outcome (control, treated, inhibition, significance) (Carcinogen: UVB IRRADIATION, Dose [Inhibitor]: 700 NMOL IN 0.1 ML ACETONE 5/WK FOR 4 WK IMMEDIATELY AFTER EACH EXPOSURE TO UVB FOLLOWED BY 48 WK OBSERVATION PERIOD (ST, Route [Inhibitor]: DERMAL, Species: MOUSE, Strain/Sex: SKH/HRL/FEMALE, Target Tissue: Type of Lesion: SKIN: TUMOR, Dose [Carcinogen]: 0.3 KJ/SQM ON FIRST DAY, 0.6 KJ/SQM ON SECOND DAY THEN 0.9 KJ/SQM UVB ADMINISTERED 5 D/WK FOR 4 WK): 8/27 (30%), 6/26 (23%), 23%, not significant
- tumour outcome (control, treated, inhibition, significance) (Dose [Inhibitor]: 0, 0.005% IN DIET FOR DURATION OF STUDY BEGINNING SIMULTANEOUSLY WITH CARCINOGEN TREATMENT (STUDY DURATION: 40 WK), Route [Inhibitor]: ORAL, Species: RAT, Strain/Sex: WISTAR/MALE, Target Tissue: Type of Lesion: COLON: TUMOR, Dose [Carcinogen]: 1 ML OF 0.1% DISTILLED WATER SOLUTION 1/D FOR 14 D): 27/33 (82%), 5/18 (28%), 66%, p<0.01
